Assay results taken from publication PMC10726354, “Design, Synthesis, and Biological Evaluation of Small-Molecule-Based Radioligands with Improved Pharmacokinetic Properties for Imaging of Programmed Death Ligand 1” (Journal of Medicinal Chemistry, 2023).

Target: T1, PD-L1 (Homo sapiens, UniProt Q9NZQ7)
T1 construct: expressed in transfected cells; host or cells: PC3 cells (human prostate carcinoma), stably transduced
Assay: Saturation binding assay on live PC3 PD-L1 overexpressing cells
Method: For assessing the binding affinity of compounds [^64Cu]Cu-1–6, PC3 cells transduced with PD-L1 were used. Dissociation constants in equilibrium (KD) and maximum number of binding sites (Bmax) were determined in a saturation binding assay. The assays were performed with the addition of 2.5% bovine serum albumin (BSA) in the medium to prevent unspecific binding to plastic wells, as reported previously for our first radioligands.[1]
For saturation binding, cells were trypsinized (0.05% Trypsin–EDTA, Gibco, USA), counted, and diluted to ∼160,000 cells/mL. 0.25 mL of the cell solution was then added to each well of a 48-well plate (Falcon Multiwell #353078) and grown for at least 2 days.
To determine the affinity (KD) and the number of binding sites (Bmax) of the herein described PD-L1 small-molecule ligands, saturation binding was performed in at least three independent experiments, as described before.[45] Cells were brought to room temperature followed by cooling on ice (each 15 min). The medium was removed and replaced with 200 μL assay buffer [PBS + 2.5% (w/v) BSA] for total binding (TB) conditions or assay buffer containing 300 μM BMS-1166 (in DMSO, resulting in 0.03% v/v) for the assessment NSB. After 15 min preincubation, 200 μL of each of the eight serial 1:1 dilutions (500 to 3.91 nM) of the respective radioligand was added (in triplicate). Cells were then incubated for 90 min at 4 °C, washed (3 × 1 min), and lysed in 500 μL of 0.1 M NaOH + 1% SDS. Radioactivity of the lysate was measured and decay corrected to a reference time (end of radiolabeling). An additional plate was subjected to the same conditions (preincubation, incubation, and washing) using PBS without BSA for each experiment, and the protein content of these lysates was determined by BCA assay. From CPM measurements, final values (pmol/mg protein) were calculated using the mean protein content and molar activity.
Processed data were then subjected to nonlinear iterative curve fitting (GraphPad Prism 9) to yield Bmax (in pmol/mg protein) and KD (in nM).

T1 sequence (Q9NZQ7 19-290): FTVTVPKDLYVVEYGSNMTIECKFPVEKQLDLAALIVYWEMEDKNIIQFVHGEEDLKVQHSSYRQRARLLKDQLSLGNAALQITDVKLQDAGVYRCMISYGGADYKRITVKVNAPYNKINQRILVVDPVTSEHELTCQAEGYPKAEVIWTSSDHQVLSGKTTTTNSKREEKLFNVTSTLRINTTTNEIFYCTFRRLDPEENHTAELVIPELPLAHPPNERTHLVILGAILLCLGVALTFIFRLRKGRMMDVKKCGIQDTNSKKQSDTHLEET

Cc1c(COc2cc(OCc3cccc(C#N)c3)c(CN3C[C@H](O)C[C@@H]3C(=O)O)cc2Cl)cccc1-c1ccc2c(c1)OCCO2 [BMS-1166, reference compound]
binding blocked in the saturation assay: ~80%
